Reference: patent publication US20080161232A1, “C5a Receptor Antagonist” (JERINI AG, priority 2005, published 2008)
Non-standard residues stand in square brackets, D forms with d. Residues, ends and D or L forms follow the SMILES beside them. N(3,4-(MeO)2phenethyl)Gly = COc1ccc(CCNCC(=O)O)cc1OC; Gly(N-(CH2)3N-pyrrolidone) = O=C(O)CNCCCN1CCCC1=O; Phe(4-F) = N[C@@H](Cc1ccc(F)cc1)C(=O)O; Bta = N[C@@H](Cc1csc2ccccc12)C(=O)O; cisHyp = O=C(O)[C@@H]1C[C@H](O)CN1; Hyp = O=C(O)[C@@H]1C[C@@H](O)CN1; d(hLeu) = CC(C)CC[C@@H](N)C(=O)O; dCha = N[C@H](CC1CCCCC1)C(=O)O; hSer = N[C@@H](CCO)C(=O)O; NMeA = CN[C@@H](C)C(=O)O; Orn = NCCC[C@H](N)C(=O)O; Aze = O=C(O)[C@@H]1CCN1; NPrGly = CCCNCC(=O)O; Nme = COCCNCC(=O)O

What follows are molecules tested against T1, human C5aR(CD88) (Homo sapiens, UniProt P21730) (assay: Determination of the IC50 value in an enzyme release assay (functional assay, antagonistic activity)). Settings: antagonistic activity; IC50 group in enzyme release assay, RBL cells expressing human C5aR(CD88); read-out: activity (group).
T1 construct: expressed in transfected cells; host or cells: rat basophilic leukemia cells (RBL)
T1 sequence (P21730 1-350): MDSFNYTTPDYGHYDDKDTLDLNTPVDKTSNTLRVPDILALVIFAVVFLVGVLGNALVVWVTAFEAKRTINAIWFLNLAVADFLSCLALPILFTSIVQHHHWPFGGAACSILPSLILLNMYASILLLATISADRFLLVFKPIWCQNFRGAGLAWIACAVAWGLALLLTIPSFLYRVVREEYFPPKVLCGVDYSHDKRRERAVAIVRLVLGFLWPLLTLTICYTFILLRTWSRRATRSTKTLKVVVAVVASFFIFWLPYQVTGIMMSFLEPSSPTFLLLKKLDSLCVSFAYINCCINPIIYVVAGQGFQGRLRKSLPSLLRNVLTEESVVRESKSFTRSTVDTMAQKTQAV
Type: cell-based
`CC(=O)N[C@@H](Cc1ccccc1)C(=O)N[C@@H](CCCN)C(=O)N1CC[C@H]1C(=O)N[C@H](CCC(C)C)C(=O)N[C@@H](Cc1csc2ccccc12)C(=O)N[C@@H](Cc1ccccc1)C(N)=O` [Compound 234, Ac-Phe-Orn-Aze-hle-Bta-Phe-NH2] (Ac-F[Orn][Aze][d(hLeu)][Bta]F-NH2) gave an IC50 of 20 to 50 nM. `CC(=O)N[C@@H](Cc1ccccc1)C(=O)N[C@@H](CCCN)C(=O)N1C[C@@H](O)C[C@H]1C(=O)N[C@H](CC1CCCCC1)C(=O)N[C@@H](Cc1csc2ccccc12)C(=O)N[C@@H](Cc1ccccc1)C(N)=O` [Compound 235, Ac-Phe-Orn-Chy-cha-Bta-Phe-NH2] (Ac-F[Orn][cisHyp][dCha][Bta]F-NH2) gave an IC50 of 50 to 200 nM. Molecule `CC(=O)N[C@@H](Cc1ccccc1)C(=O)N[C@@H](CCCN)C(=O)N1C[C@@H](O)C[C@H]1C(=O)N[C@H](CCC(C)C)C(=O)N[C@@H](Cc1ccc(F)cc1)C(=O)N[C@@H](Cc1ccccc1)C(N)=O` [Compound 236, Ac-Phe-Orn-Chy-hle-Pff-Phe-NH2] (Ac-F[Orn][cisHyp][d(hLeu)][Phe(4-F)]F-NH2) has an IC50 of 50 to 200 nM. Work on `CCCN(CC(=O)N[C@H](CC1CCCCC1)C(=O)N[C@@H](Cc1csc2ccccc12)C(=O)N[C@@H](Cc1ccccc1)C(N)=O)C(=O)[C@H](CCCN)NC(=O)[C@H](Cc1ccccc1)NC(C)=O` [Compound 237, Ac-Phe-Orn-G24-cha-Bta-Phe-NH2] (Ac-F[Orn][NPrGly][dCha][Bta]F-NH2) yielded an IC50 of 50 to 200 nM. In the case of `COCCN(CC(=O)N[C@H](CC1CCCCC1)C(=O)N[C@@H](Cc1csc2ccccc12)C(=O)N[C@@H](Cc1ccccc1)C(N)=O)C(=O)[C@H](CCCN)NC(=O)[C@H](Cc1ccccc1)NC(C)=O` [Compound 238, Ac-Phe-Orn-G25-cha-Bta-Phe-NH2] (Ac-F[Orn][Nme][dCha][Bta]F-NH2), the IC50 is reported as 50 to 200 nM. With `CC(=O)N[C@@H](Cc1ccccc1)C(=O)N[C@@H](CCCN)C(=O)N(CCCN1CCCC1=O)CC(=O)N[C@H](CC1CCCCC1)C(=O)N[C@@H](Cc1csc2ccccc12)C(=O)N[C@@H](Cc1ccccc1)C(N)=O` [Compound 241, Ac-Phe-Orn-G30-cha-Bta-Phe-NH2] (Ac-F[Orn][Gly(N-(CH2)3N-pyrrolidone)][dCha][Bta]F-NH2) the IC50 was 50 to 200 nM. Molecule `COc1ccc(CCN(CC(=O)N[C@H](CC2CCCCC2)C(=O)N[C@@H](Cc2csc3ccccc23)C(=O)N[C@@H](Cc2ccccc2)C(N)=O)C(=O)[C@H](CCCN)NC(=O)[C@H](Cc2ccccc2)NC(C)=O)cc1OC` [Compound 242, Ac-Phe-Orn-G31-cha-Bta-Phe-NH2] (Ac-F[Orn][N(3,4-(MeO)2phenethyl)Gly][dCha][Bta]F-NH2) has an IC50 of 50 to 200 nM. For `CC(=O)N[C@@H](Cc1ccccc1)C(=O)N[C@@H](CCCN)C(=O)N[C@@H](CCO)C(=O)N[C@H](CC1CCCCC1)C(=O)N[C@@H](Cc1csc2ccccc12)C(=O)N[C@@H](Cc1ccccc1)C(N)=O` [Compound 243, Ac-Phe-Orn-Hse-cha-Bta-Phe-NH2] (Ac-F[Orn][hSer][dCha][Bta]F-NH2), the IC50 was 50 to 200 nM. In the case of `CC(=O)N[C@@H](Cc1ccccc1)C(=O)N[C@@H](CCCN)C(=O)N1C[C@H](O)C[C@H]1C(=O)N[C@H](CCC(C)C)C(=O)N[C@@H](Cc1csc2ccccc12)C(=O)N[C@@H](Cc1ccccc1)C(N)=O` [Compound 244, Ac-Phe-Orn-Hyp-hle-Bta-Phe-NH2] (Ac-F[Orn][Hyp][d(hLeu)][Bta]F-NH2), the IC50 is reported as 50 to 200 nM. With `CC(=O)N[C@@H](Cc1ccccc1)C(=O)N[C@@H](CCCN)C(=O)N1C[C@H](O)C[C@H]1C(=O)N[C@H](CCC(C)C)C(=O)N[C@@H](Cc1ccc(F)cc1)C(=O)N[C@@H](Cc1ccccc1)C(N)=O` [Compound 245, Ac-Phe-Orn-Hyp-hle-Pff-Phe-NH2] (Ac-F[Orn][Hyp][d(hLeu)][Phe(4-F)]F-NH2) the IC50 was 50 to 200 nM. In the case of `CC(=O)N[C@@H](Cc1ccccc1)C(=O)N[C@@H](CCCN)C(=O)N(C)[C@@H](C)C(=O)N[C@H](CC1CCCCC1)C(=O)N[C@@H](Cc1csc2ccccc12)C(=O)N[C@@H](Cc1ccccc1)C(N)=O` [Compound 246, Ac-Phe-Orn-NMA-cha-Bta-Phe-NH2] (Ac-F[Orn][NMeA][dCha][Bta]F-NH2), the IC50 is reported as 50 to 200 nM.
